Assay in all cases: NCI anticancer screen, dose series, 48 h
Test [1] has as its system 786-0.
Test [2] concerns EKVX.
Test [3] has as its system HCC 2998.
Test [4] has as its system HOP-62.
For test [5], the system named is HOP-92.
Test [6] concerns KM12.
The test system of test [7] is LOX IMVI.
For test [8], the system named is M14.
Test [9] has as its system NCI-H522.
Test [10] has as its system OVCAR-4.
In test [11] the test system is RXF 393.
Test [12] deals with SF-295.
In test [13] the test system is SK-MEL-2.
The test system of test [14] is SNB-19.
The test system of test [15] is SR.
The test system of test [16] is SW-620.
The test system of test [17] is U-251.
Test [18] deals with A498.

The structures appear in SMILES notation.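 Cultured in 96-well plates, cells were exposed to test compound for 48 hours across five concentrations. GI50: concentration for 50% inhibition of growth.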 Calls of active or inactive are those of the source. Cut-off read from the data, not from the text of the source: active = GI50 up to about 1.1 µM and inactive = higher. A value given as a limit tells only on which side of the number the result lay.

For the compound `Brc1ccc(-c2nnc(-c3nn(-c4ccccc4)c4nc5ccccc5nc34)o2)cc1`, the GI50 in [1], in test [2], in test [3], in test [4], in test [5] and in [6] was > 100 µM (inactive) throughout. The GI50 is > 100 µM (inactive) in test [7]; > 100 µM (inactive) in test [8]; > 100 µM (inactive) in test [9]; 79.3 µM (inactive) in test [10]; > 100 µM (inactive) in test [11]; > 100 µM (inactive) in [12]. The GI50 in [13] was 60 µM (inactive); in [14] it was > 100 µM (inactive); in test [15], 27.8 µM (inactive); in [16], > 100 µM (inactive); in [17], > 100 µM (inactive).
`CCCCCCCCCC1CC(=O)Oc2cccc(O)c21` (stereo not given): the GI50 in test [1] is 10.1 µM (inactive); in test [18] it was 22.1 µM (inactive); in test [2], 40.7 µM (inactive); in test [3], 1.23 µM (inactive); in test [4] it was 34.3 µM (inactive); in test [5], 34 µM (inactive). In addition, the GI50 in test [6] was 12.5 µM (inactive); in test [7] it was 14 µM (inactive); in test [8] it was 22.7 µM (inactive); in test [9], 20.9 µM (inactive); in [10], 33.7 µM (inactive); in test [11], 23.8 µM (inactive). The GI50 in test [12] is 11.6 µM (inactive); in test [13], 20.6 µM (inactive); in test [14], 3.7 µM (inactive); in [15] it was 23.2 µM (inactive); in [16], 29.2 µM (inactive); in [17], 2.72 µM (inactive).
For the compound `CCOC(=O)C1Cc2ccc3c4c(ccc(c24)C1)CC(C(=O)OCC)C3`, the GI50 in test [1], in test [18], in test [2], in test [3], in test [4] and in test [5] was > 100 µM (inactive) each time. Further, the GI50 in test [6], in test [7], in test [8], in test [9], in [11] and in test [12] was > 100 µM (inactive) throughout. For the same compound, the GI50 in test [13], in test [14], in [15], in test [16] and in test [17] was > 100 µM (inactive) in each case.
For `CN1/C(=N\c2ccccc2)S/C1=N/c1ccccc1`, the GI50 in [1] was > 100 µM (inactive); in test [18] it was 96.4 µM (inactive); in test [2] it was 60.1 µM (inactive); in test [3], 66.8 µM (inactive); in test [4], > 100 µM (inactive); in [5] it was 10.2 µM (inactive). The GI50 in [6] was 52.2 µM (inactive); in test [7], 74.6 µM (inactive); in test [8], 72.1 µM (inactive); in test [9], 14.4 µM (inactive); in test [10] it was 59.7 µM (inactive); in [12], > 100 µM (inactive). Also, the GI50 in [13] was 27.2 µM (inactive); in [14], > 100 µM (inactive); in [15], 95.7 µM (inactive); in [16] it was > 100 µM (inactive); in test [17], > 100 µM (inactive).
In the case of `CCOC(=O)C1(C)CCC(C(=O)OC)C1=O` (stereo not given), the GI50 in test [1] is > 100 µM (inactive); in [18] it was > 100 µM (inactive); in test [2] it was > 100 µM (inactive); in test [3], 75.3 µM (inactive); in test [4], > 100 µM (inactive); in test [5] it was > 100 µM (inactive). Also, the GI50 in test [6] is > 100 µM (inactive); in [7], 18.1 µM (inactive); in test [8], > 100 µM (inactive); in [9], 17.1 µM (inactive); in test [10], > 100 µM (inactive); in [11], > 100 µM (inactive). In addition, the GI50 in [12] is > 100 µM (inactive); in [13] it was > 100 µM (inactive); in [14], > 100 µM (inactive); in [15] it was 24.6 µM (inactive); in test [17] it was 67.1 µM (inactive).
As to `O=C(CO)CC(=O)C(=O)Nc1ccccc1`, the GI50 in test [1], in [2], in [3], in test [4], in [5] and in test [6] was > 100 µM (inactive) each time. For the same compound, the GI50 in [7], in test [8], in test [10], in [11], in [12] and in test [13] was > 100 µM (inactive) in each case. The GI50 in test [14], in [15], in test [16] and in [17] was > 100 µM (inactive) throughout.
Consider `NCCOCCOCC(=O)O`, for which the GI50 in test [1], in [2], in test [3], in [5], in test [6] and in test [9] was > 100 µM (inactive) in each case. Besides, the GI50 in test [10], in [11], in test [12], in test [13], in [14] and in [15] was > 100 µM (inactive) throughout. For the same compound, the GI50 in test [16] and in test [17] was > 100 µM (inactive) each time.
Consider `CSc1nc(C)cc(=O)n1C1OC(COC(C)=O)C(OC(C)=O)C(OC(C)=O)C1OC(C)=O` (stereo not given), for which the GI50 in test [1] is > 100 µM (inactive); in [18], > 100 µM (inactive); in test [2] it was > 100 µM (inactive); in test [3], > 100 µM (inactive); in test [4], > 10 µM (inactive); in test [6] it was > 100 µM (inactive). The GI50 in test [7] is > 100 µM (inactive); in test [8], > 100 µM (inactive); in test [9], > 100 µM (inactive); in [10], > 100 µM (inactive); in test [12], > 100 µM (inactive); in test [13], 53.3 µM (inactive). Also, the GI50 in test [14], in test [15], in test [16] and in test [17] was > 100 µM (inactive) throughout.
As for `O=C(CCC(=O)Nc1ccc(Cl)c(Cl)c1)CC(=O)c1ccc(F)cc1`, the GI50 in [1], in [2], in test [3], in test [4], in [5] and in test [6] was > 100 µM (inactive) throughout. Moreover, the GI50 in [7], in test [8], in test [10], in test [11], in test [12] and in test [14] was > 100 µM (inactive) in each case. For the same compound, the GI50 in test [15], in [16] and in [17] was > 100 µM (inactive) in each case.
With `COc1cc(/C=C/C(=N\NC(=O)c2ccccc2)c2sc(Nc3ccc(Cl)c(Cl)c3)nc2C)ccc1O`, the GI50 was 41.2 µM (inactive) in test [1]; 29.6 µM (inactive) in test [2]; 28.8 µM (inactive) in test [3]; 38.4 µM (inactive) in test [4]; < 0.01 µM (active) in test [5]; 30.5 µM (inactive) in test [6]. Further, the GI50 was 19.7 µM (inactive) in test [7]; 31 µM (inactive) in [8]; 17 µM (inactive) in test [9]; 33.4 µM (inactive) in test [10]; 39.7 µM (inactive) in test [11]; 33.1 µM (inactive) in test [12]. The GI50 is 26.2 µM (inactive) in [13]; 31.6 µM (inactive) in test [14]; 22.3 µM (inactive) in test [15]; 40.4 µM (inactive) in test [16]; 31.9 µM (inactive) in test [17].
Consider `COc1cc2c(cc1O)CC13CCC(=O)N1CCc1cc(OC)c(O)c-2c13` (stereo not given), for which the GI50 in test [1], in [18], in test [2], in test [3], in [4] and in test [5] was > 68.1 µM (inactive) throughout. Besides, the GI50 in [7], in [8], in [10], in [11], in test [12] and in [14] was > 68.1 µM (inactive) in each case. In addition, the GI50 in test [15] and in test [16] was > 68.1 µM (inactive) each time.
With `C[C@]12CC=CC(=O)[C@@]1(C)CCC(=O)C2`, the GI50 in [1], in [18], in test [2], in test [3], in test [4] and in test [5] was > 100 µM (inactive) each time. The GI50 in test [6], in [8], in [9], in [10], in test [11] and in test [12] was > 100 µM (inactive) in each case. Further, the GI50 in [13], in [14], in [15], in test [16] and in test [17] was > 100 µM (inactive) each time.

Values taken from ChEMBL document CHEMBL1201862, “PubChem BioAssay data set” (2004).
